# Measurements reported in patent US10954269B2, “Anti-inflammatory tripeptides” (Dr. August Wolff Gmbh & Co. KG Arzneimittel, priority 2013, dated 2021).
# What was measured:
# [1] = test system: primary human T-cells; assay: Cytokine secretion on protein level in activated primary human T-cells (13-plex FACS / Luminex, supernatant); format: cell-based; conditions: for IL-1 cytokine concentration / IL-2 cytokine concentration / IL-4 cytokine concentration / IL-5 cytokine concentration / IL-6 cytokine concentration / IL-9 cytokine concentration / IL-10 cytokine concentration / IL-12p70 cytokine concentration / IL-13 cytokine concentration / IL-17 cytokine concentration / IL-22 cytokine concentration / TNF-α cytokine concentration / INF-α cytokine concentration: substance 10^−9M
# Procedure: (§1) Primary T-cells were isolated from peripheral blood from healthy volunteers and from secondary lymphatic organs from naïve C57BL/6 mice, respectively. The cells were stimulated with phorbol-12-myristate-13-acetate (PMA)/Ionomycin and interferon-gamma (IFN-γ), respectively, for 48 h to activate the cells. The activated cells release pro-inflammatory cytokines. In parallel a human (HaCaT) keratinocyte cell line was activated with PMA/Ionomycin and IFN-γ, respectively, too. […] At the same time release of anti-inflammatory IL-10 was inhibited. Two days after addition of PMA/Ionomycin and IFN-γ, respectively, the induction of IL-1 secretion was determined in the supernatant for proving that the cells are activated. […] The anti-inflammatory properties of the tripeptides were determined 48 h and 72 h following stimulation. A 13-plex-system based FACS analysis was used for showing the reduced secretion of pro-inflammatory cytokines in the supernatant. Data for IL-1, IL-2, IL-6, IL-12p70 IL-17, IFN-γ and TNF-α are considered to be most relevant. Thus, analysis of the anti-inflammatory properties of the tripeptides is preferably based on the results obtained for these analytes. […] Using this method the gene expression of pro-inflammatory markers like IL-6, IL-17, IFN-γ and TNF-α was determined.
# (§2) In a third experiment murine and human T cells and HaCaT cells were stimulated with PMA/Ionomycin and treated with Examples 14, 15, 16 and 17 at 10^−7 M, 10^−9 M and 10^−11 M. Cytokine concentrations (IFN-γ, IL-17 and IL-10 for T cells and IFN-γ for HaCat) were assessed in the supernatants using the Luminex technology. Expression of genes coding for Il-1β, IL-6 and TNF-α was determined. […] Moreover, concentrations of pro-inflammatory cytokines IFN-γ and IL-17 was reduced in the supernatants whereas the concentration of anti-inflammatory cytokine IL-10 was increased. […]
# (§3) For the biological assay two human cell lines of different origin were chosen to allow for translation of the results obtained. A HaCaT cell is a cell type belonging to an immortal human keratinocyte line used in scientific research. Its use in research allows for the characterization of human keratinocyte using a model that is reproducible and representing a human epithelial cell line. In contrast human T-lymphocytes (T-cells) are a type of lymphocyte (itself a type of white blood cell) that play a central role in cell-mediated inflammation/immunity.
# [2] = test system: human keratinocyte cell line (HaCaT); assay: Cytokine secretion on protein level in activated human keratinocyte cell line HaCaT (13-plex FACS / Luminex, supernatant); format: cell-based; conditions: substance 10^−9M
# Procedure: as §1, §2, §3
# [3] = test system: primary murine T-cells; assay: Cytokine secretion on protein level in activated primary murine T-cells (13-plex FACS / Luminex, supernatant); format: cell-based, C57BL/6 mice; conditions: for IL-1 cytokine concentration / IL-2 cytokine concentration / IL-4 cytokine concentration / IL-5 cytokine concentration / IL-6 cytokine concentration / IL-10 cytokine concentration / IL-13 cytokine concentration / IL-17 cytokine concentration / IL-21 cytokine concentration / IL-22 cytokine concentration / IL-27 cytokine concentration / TNF-α cytokine concentration / IFN-γ cytokine concentration: substance 10^−9M
# Procedure: as §1
# In a third experiment murine and human T cells and HaCaT cells were stimulated with PMA/Ionomycin and treated with Examples 14, 15, 16 and 17 at 10^−7 M, 10^−9 M and 10^−11 M. Cytokine concentrations (IFN-γ, IL-17 and IL-10 for T cells and IFN-γ for HaCat) were assessed in the supernatants using the Luminex technology. Expression of genes coding for Il-1β, IL-6 and TNF-α was determined. […] Moreover, concentrations of pro-inflammatory cytokines IFN-γ and IL-17 was reduced in the supernatants whereas the concentration of anti-inflammatory cytokine IL-10 was increased.
# The anti-inflammatory and immunomodulatory effects of selected examples of the present invention were compared with common immunosuppressants. Thus, cells activated with PMA/Ionomycin and IFN-γ, respectively, were stimulated with MMF or dexamethasone. Following stimulation the secretion of pro-inflammatory cytokines was analyzed on protein and gene level (Table 9 and FIGS. 4-6).
# [4] = primary human T-cells stimulated with IFN-γ
# [5] = primary human T-cells stimulated with PBS
# [6] = primary human T-cells stimulated with PMA/Ionomycin
# [7] = HaCaT stimulated with PMA/Ionomycin
# [8] = primary murine T-cells stimulated with IFN-γ
# [9] = primary murine T-cells stimulated with PBS
# [10] = primary murine T-cells stimulated with PMA/Ionomycin
substance,measurement,setting,value
"N^α,N^α-dimethyl-(L)-Lys-(D)-Pro-N^α-methyl-(L)-Val-OH [Example 5]",secretion / expression of pro-inflammatory cytokines (supernatant),[1]; activated primary human T-cells,immunomodulatory effects were seen
same,IL-1 cytokine concentration,[1]; [4],0 pg/mL
same,IL-2 cytokine concentration,[1]; [4],0 pg/mL
same,IL-4 cytokine concentration,[1]; [4],78.18 pg/mL
same,IL-5 cytokine concentration,[1]; [4],0 pg/mL
same,IL-6 cytokine concentration,[1]; [4],42.52 pg/mL
same,IL-9 cytokine concentration,[1]; [4],5.56 pg/mL
same,IL-10 cytokine concentration,[1]; [4],61 pg/mL
same,IL-12p70 cytokine concentration,[1]; [4],0 pg/mL
same,IL-13 cytokine concentration,[1]; [4],29.25 pg/mL
same,IL-17 cytokine concentration,[1]; [4],26.44 pg/mL
same,IL-22 cytokine concentration,[1]; [4],0 pg/mL
same,TNF-α cytokine concentration,[1]; [4],12.52 pg/mL
same,IL-1 cytokine concentration,[1]; [5],0 pg/mL
same,IL-2 cytokine concentration,[1]; [5],0 pg/mL
same,IL-4 cytokine concentration,[1]; [5],0 pg/mL
same,IL-5 cytokine concentration,[1]; [5],0 pg/mL
same,IL-6 cytokine concentration,[1]; [5],94.11 pg/mL
same,IL-9 cytokine concentration,[1]; [5],6.74 pg/mL
same,IL-10 cytokine concentration,[1]; [5],119.04 pg/mL
same,IL-12p70 cytokine concentration,[1]; [5],0 pg/mL
same,IL-13 cytokine concentration,[1]; [5],35.75 pg/mL
same,IL-17 cytokine concentration,[1]; [5],0 pg/mL
same,IL-22 cytokine concentration,[1]; [5],0 pg/mL
same,INF-α cytokine concentration,[1]; [5],0 pg/mL
same,TNF-α cytokine concentration,[1]; [5],0 pg/mL
same,IL-1 cytokine concentration,[1]; [6],748 pg/mL
same,IL-2 cytokine concentration,[1]; [6],4369.09 pg/mL
same,IL-4 cytokine concentration,[1]; [6],92.43 pg/mL
same,IL-5 cytokine concentration,[1]; [6],392.66 pg/mL
same,IL-6 cytokine concentration,[1]; [6],1051.51 pg/mL
same,IL-9 cytokine concentration,[1]; [6],193.58 pg/mL
same,IL-10 cytokine concentration,[1]; [6],789.38 pg/mL
same,IL-12p70 cytokine concentration,[1]; [6],0 pg/mL
same,IL-13 cytokine concentration,[1]; [6],912.49 pg/mL
same,IL-17 cytokine concentration,[1]; [6],1164.75 pg/mL
same,IL-22 cytokine concentration,[1]; [6],0 pg/mL
same,INF-α cytokine concentration,[1]; [6],8770.62 pg/mL
same,TNF-α cytokine concentration,[1]; [6],2187.46 pg/mL
same,IL-1 cytokine concentration,[2]; HaCaT stimulated with IFN-γ,0 pg/mL
same,IL-2 cytokine concentration,[2]; HaCaT stimulated with IFN-γ,0 pg/mL
same,IL-4 cytokine concentration,[2]; HaCaT stimulated with IFN-γ,0 pg/mL
same,IL-5 cytokine concentration,[2]; HaCaT stimulated with IFN-γ,0 pg/mL
same,IL-6 cytokine concentration,[2]; HaCaT stimulated with IFN-γ,415.82 pg/mL
same,IL-9 cytokine concentration,[2]; HaCaT stimulated with IFN-γ,0 pg/mL
same,IL-10 cytokine concentration,[2]; HaCaT stimulated with IFN-γ,41.86 pg/mL
same,IL-12p70 cytokine concentration,[2]; HaCaT stimulated with IFN-γ,0 pg/mL
same,IL-13 cytokine concentration,[2]; HaCaT stimulated with IFN-γ,1974.31 pg/mL
same,IL-17 cytokine concentration,[2]; HaCaT stimulated with IFN-γ,0 pg/mL
same,IL-22 cytokine concentration,[2]; HaCaT stimulated with IFN-γ,0 pg/mL
same,TNF-α cytokine concentration,[2]; HaCaT stimulated with IFN-γ,0 pg/mL
same,IFN-γ cytokine concentration,[2]; HaCaT stimulated with PBS,0 pg/mL
same,IL-1 cytokine concentration,[2]; HaCaT stimulated with PBS,0 pg/mL
same,IL-2 cytokine concentration,[2]; HaCaT stimulated with PBS,149.51 pg/mL
same,IL-4 cytokine concentration,[2]; HaCaT stimulated with PBS,152.8 pg/mL
same,IL-5 cytokine concentration,[2]; HaCaT stimulated with PBS,133.49 pg/mL
same,IL-6 cytokine concentration,[2]; HaCaT stimulated with PBS,218.63 pg/mL
same,IL-9 cytokine concentration,[2]; HaCaT stimulated with PBS,28.51 pg/mL
same,IL-10 cytokine concentration,[2]; HaCaT stimulated with PBS,89.86 pg/mL
same,IL-12p70 cytokine concentration,[2]; HaCaT stimulated with PBS,0 pg/mL
same,IL-13 cytokine concentration,[2]; HaCaT stimulated with PBS,0 pg/mL
same,IL-17 cytokine concentration,[2]; HaCaT stimulated with PBS,18.83 pg/mL
same,IL-22 cytokine concentration,[2]; HaCaT stimulated with PBS,0 pg/mL
same,TNF-α cytokine concentration,[2]; HaCaT stimulated with PBS,0 pg/mL
same,IFN-γ cytokine concentration,[2]; [7],199.65 pg/mL
same,IL-1 cytokine concentration,[2]; [7],104.98 pg/mL
same,IL-2 cytokine concentration,[2]; [7],145.65 pg/mL
same,IL-4 cytokine concentration,[2]; [7],168.7 pg/mL
same,IL-5 cytokine concentration,[2]; [7],1.93 pg/mL
same,IL-6 cytokine concentration,[2]; [7],379.04 pg/mL
same,IL-9 cytokine concentration,[2]; [7],0 pg/mL
same,IL-10 cytokine concentration,[2]; [7],59.49 pg/mL
same,IL-12p70 cytokine concentration,[2]; [7],0 pg/mL
same,IL-13 cytokine concentration,[2]; [7],0 pg/mL
same,IL-17 cytokine concentration,[2]; [7],95.44 pg/mL
same,IL-22 cytokine concentration,[2]; [7],0 pg/mL
same,TNF-α cytokine concentration,[2]; [7],27.45 pg/mL
same,secretion / expression of pro-inflammatory cytokines (supernatant),[3]; activated primary murine T-cells,immunomodulatory effects were seen
same,IL-1 cytokine concentration,[3]; [8],49.65 pg/mL
same,IL-2 cytokine concentration,[3]; [8],89.76 pg/mL
same,IL-4 cytokine concentration,[3]; [8],47.55 pg/mL
same,IL-5 cytokine concentration,[3]; [8],263.27 pg/mL
same,IL-6 cytokine concentration,[3]; [8],127.92 pg/mL
same,IL-10 cytokine concentration,[3]; [8],1359.92 pg/mL
same,IL-13 cytokine concentration,[3]; [8],0 pg/mL
same,IL-17 cytokine concentration,[3]; [8],97.22 pg/mL
same,IL-21 cytokine concentration,[3]; [8],0 pg/mL
same,IL-22 cytokine concentration,[3]; [8],32.03 pg/mL
same,IL-27 cytokine concentration,[3]; [8],20.07 pg/mL
same,TNF-α cytokine concentration,[3]; [8],24.23 pg/mL
same,IFN-γ cytokine concentration,[3]; [9],232.8 pg/mL
same,IL-1 cytokine concentration,[3]; [9],56.42 pg/mL
same,IL-2 cytokine concentration,[3]; [9],151.25 pg/mL
same,IL-4 cytokine concentration,[3]; [9],53.6 pg/mL
same,IL-5 cytokine concentration,[3]; [9],209.32 pg/mL
same,IL-6 cytokine concentration,[3]; [9],117.95 pg/mL
same,IL-10 cytokine concentration,[3]; [9],1311.94 pg/mL
same,IL-13 cytokine concentration,[3]; [9],0 pg/mL
same,IL-17 cytokine concentration,[3]; [9],0 pg/mL
same,IL-21 cytokine concentration,[3]; [9],13.71 pg/mL
same,IL-22 cytokine concentration,[3]; [9],27.66 pg/mL
same,IL-27 cytokine concentration,[3]; [9],81.64 pg/mL
same,TNF-α cytokine concentration,[3]; [9],32.89 pg/mL
same,IFN-γ cytokine concentration,[3]; [10],2075.42 pg/mL
same,IL-1 cytokine concentration,[3]; [10],178.79 pg/mL
same,IL-2 cytokine concentration,[3]; [10],112.62 pg/mL
same,IL-4 cytokine concentration,[3]; [10],81.4 pg/mL
same,IL-5 cytokine concentration,[3]; [10],246.42 pg/mL
same,IL-6 cytokine concentration,[3]; [10],189.2 pg/mL
same,IL-10 cytokine concentration,[3]; [10],1233.45 pg/mL
same,IL-13 cytokine concentration,[3]; [10],0 pg/mL
same,IL-17 cytokine concentration,[3]; [10],0 pg/mL
same,IL-21 cytokine concentration,[3]; [10],67.28 pg/mL
same,IL-22 cytokine concentration,[3]; [10],29.38 pg/mL
same,IL-27 cytokine concentration,[3]; [10],51.58 pg/mL
same,TNF-α cytokine concentration,[3]; [10],29.15 pg/mL
